Counter-ions that a name gives are not always drawn. Like-named read-outs stand apart in the source and are kept apart here.
Columns and labels:
[1] = test system: siLMNA cells; test: Cell cycle profile by flow cytometry; assay type: cell-based, human
Description: 10 μM EdU was incubated for 2 hours when indicated. Cells were fixed in 4% paraformaldehyde (Sigma-Aldrich). EdU was fluorescently labeled using the Click-iT® EdU Flow Cytometry Assay Kit (Life Sciences). DNA was stained with […] propidium iodide (Sigma-Aldrich) in phosphate buffer solution (PBS) containing 0.1% Triton-X-100 and 0.5 mg ml^−1 DNase free RNase A (Sigma-Aldrich). Samples were processed on a FACSCalibur flow cytometer equipped with CellQuest software (Becton Dickinson). Results were analysed using FlowJo software (TreeStar).

[2] = A431 proliferation assay (IncuCyte ZOOM); assay type: cell-based, human
Description: A431 cells expressing a low level of Lamin A protein (see FIG. 2) were plated at low density and treated with the indicated concentration of Compound 2. Cell growth was monitored automatically over time using an IncuCyte ZOOM®.

[3] = test system: cancer cell lines with low or high Lamin A/C expression; test: Population doubling time of cancer cell lines; assay type: cell-based, human
Description: FIG. 15: Compound 2 inhibits the proliferation, migration and invasion of cancer cells with low Lamin A/C expression. […] C) Quantification of transwell migration assays and matrigel invasion assays from the indicated low expressing cancer cell lines after treatment with 50 μM of compound 2.

[4] = Pharmacokinetics assay of Remodelin in mice; assay type: in vivo; conditions: ICR mice; for half-life: read-out: half-life (T½) (converted)
Description: FIG. 17: Pharmacokinetics assay of Remodelin in mice. A) The pharmacokinetics of Remodelin was evaluated in ICR mice following IV at 1 mg/kg and PO at 5 mg/kg dose level. […] B) Details of the results obtained in the curves shown in A).

[5] = target: T1, NAT10 purified from HEK293 cells (Homo sapiens, UniProt Q9H0A0); test: Lysine acetyltransferase (KAT) assay with tubulin substrate; assay type: biochemical; conditions: compounds at 50 μM
T1 construct: made in house; host or cells: HEK293 (transient transfection, anti-FLAG immunopurification, elution with triple-Flag peptide)
T1 sequence (Q9H0A0 1-1025): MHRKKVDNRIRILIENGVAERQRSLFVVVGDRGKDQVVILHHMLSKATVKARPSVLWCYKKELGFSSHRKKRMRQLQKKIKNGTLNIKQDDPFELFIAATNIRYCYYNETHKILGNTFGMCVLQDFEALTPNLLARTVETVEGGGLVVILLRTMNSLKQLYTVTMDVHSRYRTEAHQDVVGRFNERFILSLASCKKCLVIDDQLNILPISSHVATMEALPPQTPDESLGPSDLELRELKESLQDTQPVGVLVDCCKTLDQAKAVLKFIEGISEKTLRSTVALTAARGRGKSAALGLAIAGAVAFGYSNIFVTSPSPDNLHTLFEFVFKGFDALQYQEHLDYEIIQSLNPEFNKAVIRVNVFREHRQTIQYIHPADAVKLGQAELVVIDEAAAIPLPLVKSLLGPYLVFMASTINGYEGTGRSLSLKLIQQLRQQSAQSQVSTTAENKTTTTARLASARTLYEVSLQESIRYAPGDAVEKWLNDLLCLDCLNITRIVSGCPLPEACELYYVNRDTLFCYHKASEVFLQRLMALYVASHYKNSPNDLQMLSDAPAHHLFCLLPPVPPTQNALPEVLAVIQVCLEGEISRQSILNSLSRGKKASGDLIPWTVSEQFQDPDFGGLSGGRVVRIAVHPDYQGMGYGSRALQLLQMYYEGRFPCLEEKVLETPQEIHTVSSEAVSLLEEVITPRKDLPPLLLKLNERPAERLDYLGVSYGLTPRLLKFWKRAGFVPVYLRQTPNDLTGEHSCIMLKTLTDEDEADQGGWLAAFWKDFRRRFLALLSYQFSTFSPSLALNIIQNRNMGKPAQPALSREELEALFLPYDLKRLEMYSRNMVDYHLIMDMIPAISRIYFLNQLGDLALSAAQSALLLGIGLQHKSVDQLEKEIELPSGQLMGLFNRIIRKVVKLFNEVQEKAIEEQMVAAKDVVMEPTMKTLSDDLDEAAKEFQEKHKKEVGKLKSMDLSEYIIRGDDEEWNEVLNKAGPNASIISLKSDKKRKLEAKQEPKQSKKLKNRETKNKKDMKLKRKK
Description: HEK293 cells were transiently transfected with NAT10 constructs and harvested after 48 hours in PBS. Cells were lysed for 5 minutes at room temperature in IP lysis buffer (20 mM Tris pH 7.5, 40 mM NaCl, 2 mM MgCl2, 0.5% NP-40) freshly supplemented with 50 U/ml benzonase and EDTA-free protease inhibitor cocktail (Roche). After this initial lysis step, NaCl concentration was adjusted to 450 mM and samples were incubated at 4° C. with rotation. Lysates were clarified by centrifugation (13,200 rpm, 20 minutes at 4° C.), and after recovery NaCl concentration was equilibrated to 150 mM. Lysates were used for immunoprecipitation reaction in IP buffer (25 mM Tris pH 7.5, 150 mM NaCl, 1.5 mM DTT, 10% glycerol, 0.5% NP-40) supplemented with protease inhibitors. Target proteins were captured with anti-FLAG antibody (M2, Sigma-Aldrich) coupled to protein A/G-Dynabeads (Life Sciences). Complexes were washed with IP buffer containing incrementally increasing amounts of NaCl (250 mM, 500 mM, and 1M). Following this, the immuno-complexes were washed in TBS containing gradually decreasing amounts on NaCl (1M, 500 mM, 250 mM, and 150 mM). At this point, elution was carried out using excess triple-Flag peptide (Sigma Aldrich). Eluted proteins were loaded on a gel and the purification was verified by Silver Staining (SilverQuest kit, Life Sciences). […]

[6] = Stability on exposure to light or air; assay type: physicochemical

Oral exposure (AUC0-∞) ([4]; PO 5 mg/kg) | clearance ([4]; mouse, plasma, IV 1 mg/kg) | half-life ([4]; mouse, plasma, IV 1 mg/kg) | Tmax ([4]; mouse, plasma, PO 5 mg/kg) | bioavailability ([4]; mouse, plasma, PO 5 mg/kg vs IV 1 mg/kg) | half-life ([4]; mouse, plasma, PO 5 mg/kg) | Cmax ([4]; mouse, plasma, PO 5 mg/kg, read-out: maximum plasma concentration (Cmax)) | NAT10 WT KAT activity towards tubulin [5] | Compound | accumulation of cells in mitosis [1] | reduction of A431 proliferation ([2]; 10 μM) | proliferation of cells expressing high levels of lamin A/C ([3]; up to 50 μM) | stability [6] | effect on cell cycle profile ([1]; siLMNA cells) | A431 cell growth ([2]; indicated concentrations, growth monitored over time) | population doubling time, sensitivity by Lamin A level ([3]; 50 μM for 1 week)
259 ng·h/mL | 139 mL/min/kg | 54.9 min | 15 min | 43.5% | 109 min | 409 ng/mL | abolished NAT10 WT KAT activity | N#Cc1ccc(-c2csc(NN=C3CCCC3)n2)cc1 [Compound 1, 4-(4-Cyanophenyl)-2-(2-cyclopentylidenehydrazinyl)thiazole] | cells did not accumulate in mitosis | about 50% | not affected by up to 50 μM Remodelin | most potent and stable analogue of the series | – | – | –
– | – | – | – | – | – | – | – | Clc1ccc(-c2csc(NN=C3CCCC3)n2)cc1 [Compound 2, 4-(4-Chlorophenyl)-2-(2-cyclopentylidenehydrazinyl)thiazole Hydrochloride Salt] | – | – | – | rapidly degraded upon exposure to light or air | without markedly affecting the cell cycle profile | inhibited in a dose-dependent manner | cells expressing low levels of Lamin A are more sensitive to the molecule
– | – | – | – | – | – | – | abolished NAT10 WT KAT activity | C#CCN(N=C1CCCC1)c1nc(-c2ccc(Cl)cc2)cs1 [Compound 3, 4-(4-Chlorophenyl)-2-(2-cyclopentylidene-1-(prop-2-yn-1-yl)hydrazinyl)thiazole] | – | – | – | – | – | – | –

Reference: patent publication US9809562B2, “NAT10 modulators for treating or preventing laminopathies, aging and cancer” (CAMBRIDGE ENTERPRISE LIMITED, priority 2014, dated 2017)
